Experimental data published in patent publication US7220740B2, “1,4-diazabicyclo[3.2.2]nonabenzoxazole, -benzothiazole and benzimidazole derivatives, preparation and therapeutic use thereof” (Sanofi-aventis, priority 2000, dated 2007).

SMILES: O=[N+]([O-])c1ccc2oc(N3CCN4CCC3CC4)nc2c1
- melting point: 158 to 160 °C
